What was measured:
[1] = system: differentiated HL-60 cells; assay: Apoptosis analysis, Annexin V-FITC / 7AAD staining (flow cytometry, CLSM); format: cell-based, human; conditions: for apoptotic cells by flow cytometry: 24 h, DOX 3 μg/mL; for Annexin V-FITC / 7AAD staining by confocal microscopy: 24 h treatment
Experimental: To investigate the apoptosis of neutrophils induced by DOX, Annexin V-FITC and 7AAD were used to double stain differentiated HL-60 cells. […] The cells were re-suspended in a binding buffer for staining of Annexin V-FITC and 7AAD (emission at 650 nm) according to the manufacturer's protocol (Invitrogen). Stained cells were analyzed using a flow cytometer and imaged by a Nikon A1R^+ confocal laser scanning microscope.

[2] = Serum stability of nanoparticles in PBS with 20% FBS; format: physicochemical; conditions: pH 7.4, incubation for 4 days
Experimental: Particle size and polydispersity indexes (PDI) were measured using Malvern Zetasizer Nano90 (Westborough, Mass.). The samples were incubated in PBS at pH 7.4 for 2 h, and the measurements were conducted in a 1.0 mL quartz cuvette using a diode laser of 633 nm at 25° C. and a scattering angle was fixed at 90°. To evaluate their serum stability, nanoparticles were dispersed in 20% FBS PBS solution (pH 7.4) at a final concentration of 1 mg/mL. Nanoparticle sizes were measured at the predefined time points. Transmission electron microscopy (TEM) of nanoparticles was also performed using a FEI Technai G2 20 Twin TEM (Hillsboro, Oreg.).

[3] = system: heart, liver, spleen, lung and kidney; assay: Toxicity by histological analysis (H&E staining of major organs); conditions: for tissue or cellular damage in H&E sections of heart, liver, spleen, lung, kidney: 0.2 mg/kg DOX
Experimental: After different treatments (healthy, PBS, 4 mg/kg of free DOX, 0.2 mg/kg of free DOX, DOX-hyd-BSA NPs and DOX-ab-BSA NPs, equal to 0.2 mg/kg of DOX for NPs), mice were sacrificed by carbon dioxide asphyxiation. […] The samples were imaged by a microscope (ZEISS, Observer. Z1, USA).

[4] = system: differentiated HL-60 cells (neutrophil-like cells); assay: In vitro cytotoxicity, CCK-8 assay; format: cell-based, human; conditions: 24 h, different concentrations of DOX
Experimental: Cytotoxic effects of BSA NPs on HL-60 cells were measured by CCK-8 assay. HL-60 cells were plated in 96-well plates (Costar, Corning, N.Y.) at 5,000-10,000 cells/well. After incubation for 24 h, the culture medium was removed and a complete medium with various concentrations of free DOX, BSA and DOX-conjugated BSA NPs was used to incubate cells for 24 h, respectively. 10 μL of the solution cell proliferation reagent (Promega, Madison, Wis.) per well was added. Then, the cell viability was measured by a Synergy Neo fluorescence plate reader (BioTek, Winooski, Vt.) at 490 nm.

[5] = pH-triggered DOX release, UV-Vis of supernatants after 2 h incubation; format: physicochemical; conditions: pH 5.0 to 7.4, 2 h incubation in PBS
Experimental: To confirm the pH-triggered drug release property, BSA NPs, DOX-ab-BSA NPs and DOX-hyd-BSA NPs were incubated in PBS at pH 7.4, 6.5 and 5.0 for 2 h, respectively. After centrifugation, the supernatants were collected to determine DOX concentrations using a UV-Vis spectrometer.

[6] = In vitro drug release profile (dialysis, 37 C); format: physicochemical; conditions: pH 5.0-7.4, in 48 h
Experimental: Release profiles of DOX from NPs were studied using dialysis method at 37° C.(33) Briefly, 3 mg of NPs was dispersed in 3 mL (Ve) PBS at different pH, and then was placed in a dialysis bag (MWCO 3500 Da). The dialysis bag was immersed in 47 mL PBS (pH 7.4, 6.5 or 5.0) in a beaker. The beaker was then placed in a 37° C. water bath and stirred at 110 rpm. The samples were drawn at desired time intervals and the drug concentration was measured using UV-Vis absorption. The experiments were carried out in triplicate at each pH value. The accumulative drug release percent (Er) was calculated based on equation (1).
where, mdrug represents the amount of DOX in NPs, V0 was the whole volume of release media (V0=50 mL), Ci represents the concentration of DOX in the ith sample.

[7] = system: differentiated HL-60 cells; assay: TUNEL apoptosis assay; format: cell-based, human; conditions: CLSM images
Experimental: To further confirm the apoptosis of differentiated HL-60 cells induced by DOX, TUNEL assay was also performed using Cell Meter™ TUNEL (green fluorescence) Apoptosis Assay Kit (AAT Bioquest, Inc.) according to the manufacturer's protocol and the images were taken by a Nikon A1R^+ confocal laser scanning microscope.

LPS-challenged mice = assay: Survival study in sepsis mouse model (i.p. LPS 50 mg/kg); format: in vivo; conditions: 72 h, 0.2 mg/kg DOX i.v. 4 h after i.p. LPS 50 mg/kg
Experimental: Adult CD-1 mice were i.p. injected with LPS (50 mg/kg) in the mouse sepsis model. 4 hours later, the LPS-challenged mice were grouped randomly (10 mice per group) and treated (i.v.) with PBS, free DOX (0.2 mg/kg), and prodrug DOX-hyd-BSA NPs (equal to 0.2 mg/kg of free DOX). The animals were monitored every 6 h in the first 12 h followed by monitoring mice every 12 h in 72 h.

Compound	apoptotic cells by flow cytometry [1] [%]	Annexin V-FITC / 7AAD staining by confocal microscopy [1]	serum stability (aggregation, diameter change) [2]	tissue or cellular damage in H&E sections of heart, liver, spleen, lung, kidney [3]	cytotoxicity (cell viability) [4]	DOX absorption in supernatant [5]	cumulative DOX release [6]	co-staining of DOX and TUNEL [7]	mouse survival (LPS-challenged mice)	myocardial damage (vacuolization, myofibril loss) ([3]; high dose 4.0 mg/kg)	cells with co-staining of DOX and TUNEL [7] [%]
DOX-ab-BSA NPs	20	did not induce cell apoptosis	no aggregation (diameter change) was observed	did not show any noticeable signs of tissue or cellular damage	more efficient compared to that of DOX-ab-BSA NPs	did not show the absorption of DOX in their supernatants	10-20%	a few cells possessed TUNEL signal	–	–	–
COc1cccc2c1C(=O)c1c(O)c3c(c(O)c1C2=O)C[C@@](O)(C(=O)CO)C[C@@H]3O[C@H]1C[C@H](N)[C@H](O)[C@H](C)O1.Cl [free DOX, doxorubicin hydrochloride]	73	contained staining of Annexin-V-FITC, and less staining of 7AAD	–	did not show any noticeable signs of tissue or cellular damage	cytotoxicity was similar for both free DOX and DOX-hyd-BSA NPs	–	–	–	10-20%	induced myocardial damage	~100
